How the values were obtained:
human FVIIa = human FVIIa (Homo sapiens (Human), UniProt P08709); assay: FVIIa Ki (37° C.), FVIIa-Xase assay; assay type: biochemical; settings: for Ki: read-out: FVIIa Ki, nM 37° C.; for Ki(HK1)/Ki(FVIIa): selectivity ratio, tissue kallikrein (HK1) vs FVIIa
tissue kallikrein (HK1) = tissue kallikrein (HK1) (Homo sapiens (Human), UniProt P06870); assay: Tissue kallikrein-1 (HK1) Ki, fluorogenic substrate assay; assay type: biochemical; settings: 37° C.
Chain of tissue kallikrein (HK1) (P06870 25-262): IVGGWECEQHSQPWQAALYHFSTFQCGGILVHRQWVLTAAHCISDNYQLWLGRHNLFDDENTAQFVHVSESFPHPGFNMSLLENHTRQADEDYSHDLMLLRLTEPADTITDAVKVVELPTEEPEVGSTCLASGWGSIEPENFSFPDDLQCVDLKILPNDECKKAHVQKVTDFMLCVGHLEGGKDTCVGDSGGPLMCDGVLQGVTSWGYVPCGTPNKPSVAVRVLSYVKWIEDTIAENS

Chain of human FVIIa (P08709 61-212): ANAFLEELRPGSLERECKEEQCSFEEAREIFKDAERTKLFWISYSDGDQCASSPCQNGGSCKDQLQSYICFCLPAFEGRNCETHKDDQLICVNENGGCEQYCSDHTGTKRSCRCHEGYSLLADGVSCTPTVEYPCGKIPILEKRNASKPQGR
Chain of human FVIIa (P08709 213-466): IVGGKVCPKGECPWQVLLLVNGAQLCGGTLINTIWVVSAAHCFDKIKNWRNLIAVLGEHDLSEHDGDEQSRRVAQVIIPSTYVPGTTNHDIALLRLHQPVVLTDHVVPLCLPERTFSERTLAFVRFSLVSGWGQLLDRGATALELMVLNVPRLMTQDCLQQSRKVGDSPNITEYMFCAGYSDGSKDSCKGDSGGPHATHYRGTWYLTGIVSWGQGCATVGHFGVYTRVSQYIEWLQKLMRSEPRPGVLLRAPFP
Chain of human FVIIa (P13726 33-295 partner): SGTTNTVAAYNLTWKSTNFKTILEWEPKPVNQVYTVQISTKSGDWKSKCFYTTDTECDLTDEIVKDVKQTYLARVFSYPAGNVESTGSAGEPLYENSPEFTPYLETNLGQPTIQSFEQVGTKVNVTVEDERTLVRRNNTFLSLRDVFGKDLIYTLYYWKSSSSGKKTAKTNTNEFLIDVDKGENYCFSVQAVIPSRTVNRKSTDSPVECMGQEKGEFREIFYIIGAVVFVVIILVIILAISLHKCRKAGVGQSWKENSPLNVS

| Ki (human FVIIa) | Ki(HK1)/Ki(FVIIa) (human FVIIa) | Ki (tissue kallikrein (HK1)) | SMILES |
| --- | --- | --- | --- |
| 0.14 nM | 1357 | 190 nM | COC[C@H](C)Oc1c(F)cc2cc1CN(C)C(=O)[C@H](Nc1ccc3c(N)nccc3c1)c1ccc(c(C)c1)[C@@H](C)COC(=O)N2.O=C(O)C(F)(F)F [Example 37, (2R,15R)-2-[(1-Aminoisoquinolin-6-yl)amino]-8-fluoro-7-{[(2S)-1-methoxypropan-2-yl]oxy}-4,15,20-trimethyl-13-oxa-4,11-diazatricyclo[14.2.2.1^6,10]henicosa-1(18),6,8,10 (21),16,19-hexaene-3,12-dione; trifluoroacetic acid] |
| 0.14 nM | 1500 | 210 nM | Cc1cc2ccc1[C@@H](C)COC(=O)Nc1cc(F)c(OCCN3CCCC3=O)c(c1)CN(C)C(=O)[C@@H]2Nc1ccc2c(N)nccc2c1.O=C(O)C(F)(F)F [Example 35, (2R,15R)-2-[(1-Aminoisoquinolin-6-yl)amino]-8-fluoro-4,15,20-trimethyl-7-[2-(2-oxopyrrolidin-1-yl)ethoxy]-13-oxa-4,11-diazatricyclo[14.2.2.16,10]henicosa-1(18),6,8,10 (21),16,19-hexaene-3,12-dione; trifluoroacetic acid] |
| 0.14 nM | 15000 | 2100 nM | Cc1cc2ccc1[C@@H](C)COC(=O)Nc1cc(F)c(S(=O)(=O)C(C)C)c(c1)CN(C)C(=O)[C@@H]2Nc1cc2ccnc(N)c2cc1F.O=C(O)C(F)(F)F [Example 34, (2R,15R)-2-[(1-Amino-7-fluoroisoquinolin-6-yl)amino]-8-fluoro-4,15,17-trimethyl-7-(propane-2-sulfonyl)-13-oxa-4,11-diazatricyclo[14.2.2.1^6,10]henicosa-1(18),6,8,10 (21),16,19-hexaene-3,12-dione; trifluoroacetic acid] |
| 0.66 nM | 145 | 96 nM | Cc1cc2ccc1[C@@H](C)COC(=O)Nc1cc(F)c(S(=O)(=O)C3CC3)c(c1)CN(C)C(=O)[C@@H]2Nc1cc(F)c2c(N)nccc2c1.O=C(O)C(F)(F)F [Example 11, (2R,15R)-2-[(1-Amino-8-fluoroisoquinolin-6-yl)amino]-7-(cyclopropanesulfonyl)-8-fluoro-4,15,17-trimethyl-13-oxa-4,11-diazatricyclo[14.2.2.1^6,10]henicosa-1(18),6,8,10 (21),16,19-hexaene-3,12-dione; trifluoroacetic acid] |
| 0.17 nM | 412 | 70 nM | Cc1cc2ccc1[C@@H](C)COC(=O)Nc1cc(F)c(O[C@H](C)CO)c(c1)CN(C)C(=O)[C@@H]2Nc1ccc2c(N)nccc2c1.O=C(O)C(F)(F)F [Example 30, (2R,15R)-2-[(1-Aminoisoquinolin-6-yl)amino]-8-fluoro-7-{[(2R)-1-hydroxypropan-2-yl]oxy}-4,15,20-trimethyl-13-oxa-4,11-diazatricyclo[14.2.2.16,10]henicosa-1(18),6,8,10 (21),16,19-hexaene-3,12-dione; trifluoroacetic acid] |
| 0.23 nM | 1391 | 320 nM | Cc1cc2ccc1[C@@H](C)COC(=O)Nc1cc(F)c(O[C@@H]3COC[C@@H]3O)c(c1)CN(C)C(=O)[C@@H]2Nc1ccc2c(N)nccc2c1.O=C(O)C(F)(F)F [Example 27, (2R,15R)-2-[(1-Aminoisoquinolin-6-yl)amino]-8-fluoro-7-{[(3R,4S)-4-hydroxyoxolan-3-yl]oxy}-4,15,17-trimethyl-13-oxa-4,11-diazatricyclo[14.2.2.1^6,10]henicosa-1(18),6,8,10 (21),16,19-hexaene-3,12-dione; trifluoroacetic acid] |
| 2.3 nM | 704 | 1620 nM | Cc1cc2cc(C)c1CC(O)CC(=O)Nc1ccc(S(=O)(=O)C3CC3)c(c1)CN(C)C(=O)[C@@H]2Nc1ccc2c(N)ncc(F)c2c1.O=C(O)C(F)(F)F (stereo partly drawn) [Example 2, (2R)-2-[(1-Amino-4-fluoroisoquinolin-6-yl)amino]-7-(cyclopropanesulfonyl)-14-hydroxy-4,17,20-trimethyl-4,11-diazatricyclo[14.2.2.1^6,10]henicosa-1(18),6,8,10 (21),16,19-hexaene-3,12-dione; trifluoroacetic acid] |
| 0.31 nM | 2516 | 780 nM | Cc1cc2ccc1[C@@H](C)COC(=O)Nc1ccc(S(=O)(=O)C(C)(C)C)c(c1)CN(C)C(=O)[C@@H]2Nc1ccc2c(N)nccc2c1.O=C(O)C(F)(F)F (stereo in doubt) [Example 22, (15R)-2-[(1-Aminoisoquinolin-6-yl)amino]-4,15,17-trimethyl-7-(2-methylpropane-2-sulfonyl)-13-oxa-4,11-diazatricyclo[14.2.2.1^6,10]henicosa-1(18),6,8,10 (21),16,19-hexaene-3,12-dione; trifluoroacetic acid] |

— patent US9174974B2, “Macrocyclic factor VIIa inhibitors” (BRISTOL-MYERS SQUIBB COMPANY, priority 2012, dated 2015)
